Data: patent publication US20260166159A1, “KRAS G12D DEGRADATION AGENT, AND PREPARATION METHOD AND USE THEREFOR” (LEADINGTAC PHARMACEUTICAL (SHAOXING) CO., LTD., priority 2022, published 2026)

Assays:
[1] = biological target: T1, KRAS-G12D (Homo sapiens, UniProt P01116, G12D); test: KRAS-G12D degradation assay (Western Blot), A-427 cells; format: cell-based; settings: A427 cells, 24 h; for Dmax: A-427
T1 construct: endogenous in cells; host or cells: A-427 (ATCC), AGS, AsPc-1, Panc 04.03
Protocol: The degradation effects of the compounds on KRAS-G12D were investigated on KRAS G12D mutant human lung cancer cell A-427 (ATCC), KRAS G12D mutant human gastric cancer cell AGS, KRAS G12D mutant human metastatic pancreatic cancer cell AsPc-1, and KRAS G12D mutant human pancreatic adenocarcinoma cell Panc 04.03. The specific procedures were as follows: 0.95 mL of cells were seeded into each well of a 24-well cell culture plate to achieve a cell density of 5×10^5 cells/well; and the cell plate was incubated in an incubator at 37° C. with 5% CO2 overnight. Then 50 μL of the compound solution after dilution was added to each of the wells with the corresponding cells, so that the final concentration of the compound was in a range of 0.03-3000 nM. The final concentration of DMSO was 0.25%. After the compounds were added, the cell plate was incubated in the incubator at 37° C. with 5% CO2 for 24 h. The culture medium in the 24-well cell culture plate was removed, and the plate was washed twice with 1×PBS (KeyGEN). 120 μL of RIPA (strong) lysis buffer (Beyotime) supplemented with 1 mM phenylmethylsulfonyl fluoride, a protease inhibitor mixture (Beyotime), and a protease phosphatase inhibitor mixture (Beyotime) was added to lyse adherent A-427 cells at the bottom of the cell culture plate. After the plate was left to stand on ice for 30 min, the protein lysate in each well was transferred to a 1.5 mL centrifuge tube and centrifuged at 15000 g for 20 min at 4° C. The cell lysate supernatants after centrifugation were cryopreserved in a refrigerator at −80° C. for later use.
After the samples of the cell lysate supernatants that had been prepared were thawed from the refrigerator at −80° C., the total protein concentrations of the cell lysates were determined using a BCA protein quantification kit (Tiangen). The total protein concentrations of the samples were then adjusted to 0.5 μg/μL with PBS and 5×SDS-PAGE protein loading buffer (Beyotime), and the samples were incubated in a water bath at 100° C. for 15 min. The samples were then incubated in an ice bath for 5 min and centrifuged at 14000 g for 1 min at 4° C., and the supernatants were mixed well as loading samples for the Western Blot assay. The samples were loaded into wells of a 10% precast gel (KeyGEN) with a loading volume of 10 μL (total protein: 5 μg), a sufficient Tris-MOPS-SDS running buffer (Adamas) was added, and then electrophoresis was performed at a constant voltage of 120 V for 55 min. After the electrophoresis, the proteins on the gel were transferred to PVDF membranes at a constant current of 250 mA for 55 min. After the membrane transfer, the PVDF membranes were incubated in 1× Quick Block blocking buffer (Beyotime) at room temperature for 30 min. After the blocking, the PVDF membranes were separately incubated at 4° C. overnight with the KRAS antibody (Abcam) diluted in a ratio of 1:1000 and the […] antibody (Abcam) diluted in a ratio of 1:2000 in 5% BSA as the diluent, and then washed with 1×TBST buffer (2.4 g of Tris, 8.8 g of NaCl, 1.5 mL of Tween 20, with pH adjusted to 7.4, with the volume brought to 1 L) 3 times for 10 min/time. The membranes were incubated with a secondary antibody (Abcam) diluted in 5% BSA at room temperature for 2 h, and then washed with 1×TBST buffer 3 times for 10 min/time. Finally, the membranes were incubated with Clarity Western ECL Substrate (BIO-RAD) for 5 min for luminescence and color development, and a ChemiScope 6200 Touch chemiluminescence imaging system (Clinx) was used for color development and protein mapping. Gray value analysis of the protein maps was performed using the chemiluminescence analysis software (Clinx). The gray correction value for each sample was calculated using the formula: gray correction value=(gray value of target protein/gray value of corresponding internal reference)×10^3. Then degradation rates were calculated by comparison with the gray correction value of the control group. […]

[2] = system: KRAS G12D mutant human gastric cancer cell AGS; test: 3D cell proliferation inhibition assay, AGS; format: cell-based; settings: 168 h, 7 days, CTG, numeric values
Description: The inhibitory effects of the compounds on 3D cell proliferation were investigated on KRAS G12D mutant human lung cancer cell A427, KRAS G12D mutant human gastric cancer cell AGS, KRAS G12D mutant human metastatic pancreatic cancer cell AsPc-1, KRAS G12D mutant human pancreatic cancer cell Panc 04.03, KRAS G12D mutant human pancreatic cancer cell HPAC, KRAS G12V mutant human lung squamous cell carcinoma cell SW900, and KRAS WT human gastric cancer cell MKN1. The specific procedures were as follows:
10 μL of each compound solution diluted in a gradient was added to corresponding wells of a 96-well low-adsorption microplate (PerkinElmer), so that the final concentrations of the test compounds in the reaction system were in a range of 10000-0.026 nM. The final concentration of DMSO was 0.2%. Then 90 µL of cells were correspondingly seeded into each well to achieve a cell density of 5×10^2 cells/well (the cell density of SW900 was 5×10^1 cells/well, and the cell density of MKN1 was 1×10^3 cells/well). In addition to test wells for the test compounds, both a DMSO control well and a medium control well were set, with the DMSO control well containing DMSO and cells and the medium well containing only a medium. After the sample loading, the 96-well low-adsorption microplate was incubated in an incubator at 37° C. with 5% carbon dioxide for 7 days. After 7 days, the microplate was taken out, and 100 μL of CTG reagent (Promega) was added to each well. The plate was incubated at room temperature for 60 min and read on a microplate reader EnVision by the chemiluminescence program. The inhibition rates of the compounds at each concentration were calculated using the formula for the percentage inhibition of cell proliferation: inhibition rate %=(mean value of DMSO control group−single concentration reading value of compound)/(mean value of DMSO control group−mean value of medium control group)×100. Then non-linear curve fittings for logarithmic concentration-inhibition rate were performed by GraphPad Prism 8, and the IC50 values of the compounds were obtained (Table 5).

T1 sequence (P01116 1-188 isoform P01116-2 G12D): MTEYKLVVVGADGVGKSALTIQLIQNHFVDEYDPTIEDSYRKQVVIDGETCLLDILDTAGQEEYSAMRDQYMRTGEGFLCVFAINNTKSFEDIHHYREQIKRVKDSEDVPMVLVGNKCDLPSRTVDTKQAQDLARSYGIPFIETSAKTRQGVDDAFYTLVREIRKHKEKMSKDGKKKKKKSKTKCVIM

Row | Structure (SMILES) | DC50 ([1]; class symbols) | IC50 [2] | DC50 ([1]; numeric values) | Dmax ([1]; numeric values) | further results
1 | C#Cc1c(F)ccc2cc(O)cc(-c3ncc4c(N5CC6CCC(C5)N6)nc(OCC5(CN6CC(CCN7CCC8(CC7)CCN(C(=O)c7ccc(OC)c(N9CCC(=O)NC9=O)c7)CC8)C6)CC5)nc4c3F)c12 [Example 41, 1-(5-(9-(2-(1-((1-(((4-(3,8-diazabicyclo[3.2.1]octan-3-yl)-7-(8-ethynyl-7-fluoro-3-hydroxynaphthalen-1-yl)-8-fluoropyrido[4,3-d]pyrimidin-2-yl)oxy)methyl)cyclopropyl)methyl)azetidin-3-yl)ethyl)-3,9-diazaspiro[5.5]undecane-3-carbonyl)-2-methoxyphenyl)dihydropyrimidine-2,4(1H,3H)-dione] | 1000 to 10000 nM | – | – | – | –
2 | C#Cc1c(F)ccc2cc(O)cc(-c3ncc4c(N5CC6CCC(C5)N6)nc(OCC5(CN6CCN(CCC7CC8(CCN(C(=O)c9ccc(OC)c(N%10CCC(=O)NC%10=O)c9)CC8)C7)CC6)CC5)nc4c3F)c12 [Example 43, 1-(5-(2-(2-(4-((1-(((4-(3,8-diazabicyclo[3.2.1]octan-3-yl)-7-(8-ethynyl-7-fluoro-3-hydroxynaphthalen-1-yl)-8-fluoropyrido[4,3-d]pyrimidin-2-yl)oxy)methyl)cyclopropyl)methyl)piperazin-1-yl)ethyl)-7-azaspiro[3.5]nonane-7-carbonyl)-2-methoxyphenyl)dihydropyrimidine-2,4(1H,3H)-dione] | ≤ 50 nM | – | – | – | Dmax ([1]; class symbols): 50 to 80%
3 | C#Cc1c(F)ccc2cc(O)cc(-c3ncc4c(N5CC6CCC(C5)N6)nc(NCC5(CN6CCN(CC7CCC8(CC7)CCN(C(=O)c7ccc(Cl)c(N9CCC(=O)NC9=O)c7)CC8)CC6)CC5)nc4c3F)c12 [Example 46, 1-(5-(9-((4-((1-(((4-(3,8-diazabicyclo[3.2.1]octan-3-yl)-7-(8-ethynyl-7-fluoro-3-hydroxynaphthalen-1-yl)-8-fluoropyrido[4,3-d]pyrimidin-2-yl)amino)methyl)cyclopropyl)methyl)piperazin-1-yl)methyl)-3-azaspiro[5.5]undecane-3-carbonyl)-2-chlorophenyl)dihydropyrimidine-2,4(1H,3H)-dione] | ≤ 50 nM | – | – | – | Dmax ([1]; class symbols): 80 to 100%
4 | C#Cc1c(F)ccc2cc(O)cc(-c3ncc4c(N5CC6CCC(C5)N6)nc(OCC5CCN(CCCC6CCC7(CC6)CCN(C(=O)c6ccc(Cl)c(N8CCC(=O)NC8=O)c6)CC7)CC5)nc4c3F)c12 [Example 68, 1-(5-(9-(3-(4-(((4-(3,8-diazabicyclo[3.2.1]octan-3-yl)-7-(8-ethynyl-7-fluoro-3-hydroxynaphthalen-1-yl)-8-fluoropyrido[4,3-d]pyrimidin-2-yl)oxy)methyl)piperidin-1-yl)propyl)-3-azaspiro[5.5]undecane-3-carbonyl)-2-chlorophenyl)dihydropyrimidine-2,4(1H,3H)-dione] | – | 24.8 nM | – | – | –
5 | CCc1cccc2cc(O)cc(-c3ccc4c(N5CC6CCC(C5)N6)nc(OCC5(CN6CCN(CC7CCC8(CC7)CCN(C(=O)c7ccc(C)c(N9CCC(=O)NC9=O)c7)CC8)CC6)CC5)nc4c3F)c12 [Example 70, 1-(5-(9-((4-((1-(((4-(3,8-diazabicyclo[3.2.1]octan-3-yl)-7-(8-ethyl-3-hydroxynaphthalen-1-yl)-8-fluoroquinazolin-2-yl)oxy)methyl)cyclopropyl)methyl)piperazin-1-yl)methyl)-3-azaspiro[5.5]undecane-3-carbonyl)-2-methylphenyl)dihydropyrimidine-2,4(1H,3H)-dione] | – | 15.5 nM | 14.6 nM | 87.3% | –
6 | CCc1cccc2cc(O)cc(-c3ccc4c(N5CC6CCC(C5)N6)nc(OCC5(CN6CCN(CC7CCC8(CC7)CCN(C(=O)c7ccc(OC)c(N9CCC(=O)NC9=O)c7)CC8)CC6)CC5)nc4c3F)c12 [Example 83, 1-(5-(9-((4-((1-(((4-(3,8-diazabicyclo[3.2.1]octan-3-yl)-7-(8-ethyl-3-hydroxynaphthalen-1-yl)-8-fluoroquinazolin-2-yl)oxy)methyl)cyclopropyl)methyl)piperazin-1-yl)methyl)-3-azaspiro[5.5]undecane-3-carbonyl)-2-methoxyphenyl)dihydropyrimidine-2,4(1H,3H)-dione] | – | – | 33.9 nM | 87.2% | –
7 | C#Cc1c(F)ccc2cc(O)cc(-c3ncc4c(N5C[C@@H]6C[C@H]5CN6)nc(OCC5(CN6CCN(CC7CCC8(CC7)CCN(C(=O)c7ccc(C)c(N9CCC(=O)NC9=O)c7)CC8)CC6)CC5)nc4c3F)c12 [Example 86, 1-(5-(9-((4-((1-(((4-((1S,4S)-2,5-diazabicyclo[2.2.1]heptan-2-yl)-7-(8-ethynyl-7-fluoro-3-hydroxynaphthalen-1-yl)-8-fluoropyrido[4,3-d]pyrimidin-2-yl)oxy)methyl)cyclopropyl)methyl)piperazin-1-yl)methyl)-3-azaspiro[5.5]undecane-3-carbonyl)-2-methylphenyl)dihydropyrimidine-2,4(1H,3H)-dione] | – | 97.5 nM | – | – | –
8 | C#Cc1c(F)ccc2cc(O)cc(-c3ncc4c(N5CC6CCC(C5)N6)nc(OCC5(CN6CC7CC(C6)N7CC6CCC7(CC6)CCN(C(=O)c6ccc(Cl)c(N8CCC(=O)NC8=O)c6)CC7)CC5)nc4c3F)c12 [Example 87, 1-(5-(9-((3-((1-(((4-(3,8-diazabicyclo[3.2.1]octan-3-yl)-7-(8-ethynyl-7-fluoro-3-hydroxynaphthalen-1-yl)-8-fluoropyrido[4,3-d]pyrimidin-2-yl)oxy)methyl)cyclopropyl)methyl)-3,6-diazabicyclo[3.1.1]heptan-6-yl)methyl)-3-azaspiro[5.5]undecane-3-carbonyl)-2-chlorophenyl)dihydropyrimidine-2,4(1H,3H)-dione] | – | 606 nM | – | – | –
9 | CCc1cccc2cc(O)cc(-c3ncc4c(N5CCC6CCC(C5)N6)nc(OCC5(CN6CCN(CC7CCC8(CC7)CCN(C(=O)c7ccc(OC)c(N9CCC(=O)NC9=O)c7)CC8)CC6)CC5)nc4c3F)c12 (stereo not drawn) [Example 88, 1-(5-(9-((4-((1-(((4-(3,9-diazabicyclo[4.2.1]nonan-3-yl)-7-(8-ethyl-3-hydroxynaphthalen-1-yl)-8-fluoropyrido[4,3-d]pyrimidin-2-yl)oxy)methyl)cyclopropyl)methyl)piperazin-1-yl)methyl)-3-azaspiro[5.5]undecane-3-carbonyl)-2-methoxyphenyl)dihydropyrimidine-2,4(1H,3H)-dione] | – | – | 0.65 nM | 89.5% | –
